In ChEMBL document CHEMBL5096228, “Targeting Vancomycin-Resistant Enterococci (VRE) Infections and Van Operon-Mediated Drug Resistance Using Dimeric Cholic Acid-Peptide Conjugates” (J Med Chem, 2022):
≈ marks a conversion by molar mass, not a printed value. Positions of bridges follow the written chain, without caps; N, C: chain ends. Non-standard residues stand in square brackets, D forms with d. Residues, ends and D or L forms follow the SMILES beside them. *: point of attachment. X1 = CC[C@H](C)CCCCC(=O)*; Dab = NCC[C@H](N)C(=O)O

How the values were obtained:
[1] = tested on: Staphylococcus aureus; assay: Antimicrobial activity against Staphylococcus aureus ATCC 25923 assessed as growth inhibition after 14 to 16 hrs by CLSI based broth dilution method; type: functional; conditions: time 14-16 hrs
[2] = tested on: Enterococcus faecium; assay: Antimicrobial activity against Enterococcus faecium assessed as growth inhibition after 14 to 16 hrs by CLSI based broth dilution method; type: functional; conditions: time 14-16 hrs
[3] = tested on: Staphylococcus aureus; assay: Antimicrobial activity against methicillin-resistant Staphylococcus aureus ATCC 33591 assessed as growth inhibition after 14 to 16 hrs by CLSI based broth dilution method; type: functional; conditions: time 14-16 hrs
[4] = tested on: Enterococcus faecium; assay: Antimicrobial activity against Vancomycin-resistant Enterococcus faecium ATCC 51559 assessed as growth inhibition after 14 to 16 hrs by CLSI based broth dilution method; type: functional; conditions: time 14-16 hrs
[5] = Cytotoxicity against mouse LLC cells assessed as reduction in cell viability; type: toxicity, cell-based; conditions: LLC (3LL) cells
[6] = Hemolytic activity in human RBC at 50 ug/ml; type: toxicity, cell-based, Erythrocyte; conditions: red blood cells (erythrocytes), at 50 µg/mL, read-out: Activity

SMILES | MIC99 [1] [mg/L] | MIC99 [2] [mg/L] | MIC99 [3] [mg/L] | MIC99 [4] [mg/L] | IC50 [5] | hemolysis at 50 ug/ml [6] [%]
C[C@H](CCC(=O)NCc1cn(CCCCCn2cc(CNC(=O)CC[C@@H](C)[C@H]3CC[C@H]4[C@@H]5[C@H](OC(=O)CN)C[C@@H]6C[C@H](OC(=O)CN)CC[C@]6(C)[C@H]5C[C@H](OC(=O)CN)[C@]34C)nn2)nn1)[C@H]1CC[C@H]2[C@@H]3[C@H](OC(=O)CN)C[C@@H]4C[C@H](OC(=O)CN)CC[C@]4(C)[C@H]3C[C@H](OC(=O)CN)[C@]12C.Cl.Cl.Cl.Cl.Cl.Cl | 128 | 32 | 64 | 16 | 153 mg/L | 10
CC(C)C(N)C(=O)NCC(=O)O[C@@H]1CC[C@@]2(C)[C@@H](C1)C[C@@H](OC(=O)CNC(=O)C(N)C(C)C)[C@@H]1[C@@H]2C[C@H](OC(=O)CNC(=O)C(N)C(C)C)[C@]2(C)[C@@H]([C@H](C)CCC(=O)NCc3cn(CCCCCn4cc(CNC(=O)CC[C@@H](C)[C@H]5CC[C@H]6[C@@H]7[C@H](OC(=O)CNC(=O)C(N)C(C)C)C[C@@H]8C[C@H](OC(=O)CNC(=O)C(N)C(C)C)CC[C@]8(C)[C@H]7C[C@H](OC(=O)CNC(=O)C(N)C(C)C)[C@]56C)nn4)nn3)CC[C@@H]12.Cl.Cl.Cl.Cl.Cl.Cl (some centres not stated) | 128 | 16 | 32 | 4 | 96 mg/L | 36
NC[C@@H]1O[C@H](O[C@H]2[C@@H](O)[C@H](O[C@@H]3[C@@H](O)[C@H](N)C[C@H](N)[C@H]3O[C@H]3O[C@H](CN)[C@@H](O)[C@H](O)[C@H]3N)O[C@@H]2CO)[C@H](N)[C@@H](O)[C@@H]1O [FRAMYCETIN] | 16 (≈ 26 µM) | 16 (≈ 26 µM) | > 128 | > 128 | > 1000 µM | –
C[C@H](CCC(=O)NCc1cn(CCCn2cc(CNC(=O)CC[C@@H](C)[C@H]3CC[C@H]4[C@@H]5[C@H](OC(=O)CN)C[C@@H]6C[C@H](OC(=O)CN)CC[C@]6(C)[C@H]5C[C@H](OC(=O)CN)[C@]34C)nn2)nn1)[C@H]1CC[C@H]2[C@@H]3[C@H](OC(=O)CN)C[C@@H]4C[C@H](OC(=O)CN)CC[C@]4(C)[C@H]3C[C@H](OC(=O)CN)[C@]12C.Cl.Cl.Cl.Cl.Cl.Cl | 128 | 32 | 32 | 16 | 131 mg/L | 9
CC[C@H](C)CCCCC(=O)N[C@@H](CCN)C(=O)N[C@H](C(=O)N[C@@H](CCN)C(=O)N[C@H]1CCNC(=O)[C@H]([C@@H](C)O)NC(=O)[C@H](CCN)NC(=O)[C@H](CCN)NC(=O)[C@H](CC(C)C)NC(=O)[C@@H](Cc2ccccc2)NC(=O)[C@H](CCN)NC1=O)[C@@H](C)O (X1-[Dab]T[Dab][Dab][Dab][dF]L[Dab][Dab]T; lactam 4-C) | 128 (≈ 106 µM) | > 128 | 32 (≈ 26.6 µM) | > 128 | – | –
CC(C)C(N)C(=O)NCC(=O)O[C@@H]1CC[C@@]2(C)[C@@H](C1)C[C@@H](OC(=O)CNC(=O)C(N)C(C)C)[C@@H]1[C@@H]2C[C@H](OC(=O)CNC(=O)C(N)C(C)C)[C@]2(C)[C@@H]([C@H](C)CCC(=O)NCc3cn(CCCCn4cc(CNC(=O)CC[C@@H](C)[C@H]5CC[C@H]6[C@@H]7[C@H](OC(=O)CNC(=O)C(N)C(C)C)C[C@@H]8C[C@H](OC(=O)CNC(=O)C(N)C(C)C)CC[C@]8(C)[C@H]7C[C@H](OC(=O)CNC(=O)C(N)C(C)C)[C@]56C)nn4)nn3)CC[C@@H]12.Cl.Cl.Cl.Cl.Cl.Cl (some centres not stated) | 128 | 8 | 32 | 4 | 52 mg/L | 50
C[C@H](CCC(=O)NCc1cn(CCCCCCn2cc(CNC(=O)CC[C@@H](C)[C@H]3CC[C@H]4[C@@H]5[C@H](OC(=O)CN)C[C@@H]6C[C@H](OC(=O)CN)CC[C@]6(C)[C@H]5C[C@H](OC(=O)CN)[C@]34C)nn2)nn1)[C@H]1CC[C@H]2[C@@H]3[C@H](OC(=O)CN)C[C@@H]4C[C@H](OC(=O)CN)CC[C@]4(C)[C@H]3C[C@H](OC(=O)CN)[C@]12C.Cl.Cl.Cl.Cl.Cl.Cl | 128 | 16 | 32 | 8 | 66 mg/L | 58
C[C@H](CCC(=O)NCc1cn(CCCCn2cc(CNC(=O)CC[C@@H](C)[C@H]3CC[C@H]4[C@@H]5[C@H](OC(=O)CN)C[C@@H]6C[C@H](OC(=O)CN)CC[C@]6(C)[C@H]5C[C@H](OC(=O)CN)[C@]34C)nn2)nn1)[C@H]1CC[C@H]2[C@@H]3[C@H](OC(=O)CN)C[C@@H]4C[C@H](OC(=O)CN)CC[C@]4(C)[C@H]3C[C@H](OC(=O)CN)[C@]12C.Cl.Cl.Cl.Cl.Cl.Cl | 128 | 64 | 64 | 32 | 211 mg/L | 2
CC(C)C(N)C(=O)NCC(=O)O[C@@H]1CC[C@@]2(C)[C@@H](C1)C[C@@H](OC(=O)CNC(=O)C(N)C(C)C)[C@@H]1[C@@H]2C[C@H](OC(=O)CNC(=O)C(N)C(C)C)[C@]2(C)[C@@H]([C@H](C)CCC(=O)OCc3ccccc3)CC[C@@H]12 (some centres not stated) | 16 (≈ 16.5 µM) | 8 (≈ 8.27 µM) | 4 (≈ 4.14 µM) | 2 (≈ 2.07 µM) | 40 mg/L | 95
CC(C)C(N)C(=O)NCC(=O)O[C@@H]1CC[C@@]2(C)[C@@H](C1)C[C@@H](OC(=O)CNC(=O)C(N)C(C)C)[C@@H]1[C@@H]2C[C@H](OC(=O)CNC(=O)C(N)C(C)C)[C@]2(C)[C@@H]([C@H](C)CCC(=O)NCc3cn(CCCCCCn4cc(CNC(=O)CC[C@@H](C)[C@H]5CC[C@H]6[C@@H]7[C@H](OC(=O)CNC(=O)C(N)C(C)C)C[C@@H]8C[C@H](OC(=O)CNC(=O)C(N)C(C)C)CC[C@]8(C)[C@H]7C[C@H](OC(=O)CNC(=O)C(N)C(C)C)[C@]56C)nn4)nn3)CC[C@@H]12.Cl.Cl.Cl.Cl.Cl.Cl (some centres not stated) | 128 | 16 | 32 | 4 | 69 mg/L | 57
